In publication PMC8544286, “Screening and Identification of a Novel Anti-tuberculosis Compound That Targets Deoxyuridine 5′-Triphosphate Nucleotidohydrolase” (Frontiers in Microbiology, 2021):
≈ marks a conversion by molar mass, not a printed value. Where two headings read alike, the source gives them in different places.

Columns and labels:
[1] = system: extensive drug-resistant strain XDR-FJ05195; assay: microbe, parasite or virus in culture; format: cell-based; settings: Mycobacterium tuberculosis, 168 h
[2] = system: extensive drug-resistant strain XDR-XZ06008; assay: microbe, parasite or virus in culture; format: cell-based; settings: Mycobacterium tuberculosis, 168 h
[3] = system: multidrug-resistant strain MDR-FJ05189; assay: microbe, parasite or virus in culture; format: cell-based; settings: Mycobacterium tuberculosis, 168 h
[4] = system: multidrug-resistant strain MDR-FJ05120; assay: microbe, parasite or virus in culture; format: cell-based; settings: Mycobacterium tuberculosis, 168 h
Mt-P79A-dUTPase = Mt-P79A-dUTPase (Mycobacterium tuberculosis, UniProt P9WNS5, P79A); format: binding
[5] = […], MABA, 7 days at 37°C, read-out: MIC

## NNC(=O)c1ccncc1 [Isoniazid]
[1]; [5]
  MIC: > 256 µg/mL
[2]; [5]
  MIC: > 256 µg/mL
[3]; [5]
  MIC: < 0.5 µg/mL
[4]; [5]
  MIC: 4 µg/mL (≈ 29.2 µM)

## CO[C@H]1/C=C/O[C@@]2(C)Oc3c(C)c(O)c4c(O)c(c(/C=N/N5CCN(C)CC5)c(O)c4c3C2=O)NC(=O)/C(C)=C\C=C\[C@H](C)[C@H](O)[C@@H](C)[C@@H](O)[C@@H](C)[C@H](OC(C)=O)[C@@H]1C [Rifampicin]
[1]
  MIC: 4 µg/mL (≈ 4.86 µM)
[2]
  MIC: > 256 µg/mL
[3]
  MIC: > 256 µg/mL
[4]
  MIC: > 256 µg/mL

## C=CCn1c(/C=C/c2ccccc2)nc2ccccc21 [F0414]
[1]; [5]
  MIC: 2 µg/mL (≈ 7.68 µM)
[2]; [5]
  MIC: 8 µg/mL (≈ 30.7 µM)
Mt-P79A-dUTPase
  SPR binding to Mt-P79A-dUTPase: much weaker affinity
[3]; [5]
  MIC: 2 µg/mL (≈ 7.68 µM)
[4]; [5]
  MIC: 8 µg/mL (≈ 30.7 µM)
